Data from PubChem BioAssay AID330 (DTP/NCI, 2004).
Where “and” joins values, the source holds several entries; their conditions need not be identical. Equal values may be shown once. Inconclusive results and toxic doses are left out. Peptide text beside a SMILES is read from it.

Test system: P388 leukemia ip, CD2F1 mice, survival T/C
Test: NCI In Vivo Anticancer Drug Screen. Data for tumor model P388 Leukemia (intraperitoneal) in CD2F1 (CDF1) mice
Details: endpoint: median survival time, higher = longer survival
How it was run: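 Mice carrying the transplanted tumor received test compound or vehicle. Survival was recorded in each group, and the value is the treated-group measurement divided by that of the vehicle-treated control group.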

[1] = dose: 60.0 mg/kg/injection, schedule: Q01DX005 (ip), vehicle: saline with Tween-80
[2] = dose: 120.0 mg/kg/injection, schedule: Q01DX005 (ip), vehicle: saline with Tween-80
[3] = dose: 240.0 mg/kg/injection, schedule: Q01DX005 (ip), vehicle: saline with Tween-80

Q: Which results are given for `COC1=CC(=Nc2ccc(N(C)C)cc2)C=CC1=O`?
A: T/C (dose: 3.12 mg/kg/injection, schedule: Q01DX005 (ip), vehicle: saline): 106 % of control; T/C (dose: 6.25 mg/kg/injection, schedule: Q01DX005 (ip), vehicle: saline): 109 % of control; T/C (dose: 12.5 mg/kg/injection, schedule: Q01DX005 (ip), vehicle: saline): 106 % of control

Q: Which results are given for `c1ccc2c(c1)nc1cc(NC3CCCCC3)c(=NC3CCCCC3)cc-1n2C1CCCCC1`?
A: T/C [1]: 87 % of control; T/C [2]: 91 % of control; T/C [3]: 89 % of control

Q: What does the source list for `CCCC1OC(C)(Cc2ccccc2)OCC1CC` (stereo not drawn)?
A: T/C (dose: 100.0 mg/kg/injection, schedule: Q01DX009 (ip), vehicle: saline): 103 % of control; T/C (dose: 200.0 mg/kg/injection, schedule: Q01DX009 (ip), vehicle: saline): 113 % of control; T/C (dose: 400.0 mg/kg/injection, schedule: Q01DX009 (ip), vehicle: saline): 109 % of control

Q: With `CC(C)C(NC(=O)C(N)CCCCN)C(=O)O` (stereo not drawn) (H-Lys-Val-OH; configuration not given here) as the compound, how does the T/C (dose: 100.0 mg/kg/injection, schedule: Q04DX003 (ip), vehicle: saline) read?
A: The T/C was 96 % of control.

Q: And the T/C (dose: 200.0 mg/kg/injection, schedule: Q04DX003 (ip), vehicle: saline)?
A: Its T/C is 97 % of control.

Q: What about the T/C (dose: 400.0 mg/kg/injection, schedule: Q04DX003 (ip), vehicle: saline) of the same compound?
A: Its T/C is 97 % of control.

Q: Which T/C (dose: 6.25 mg/kg/injection, schedule: Q01DX005 (ip), vehicle: distilled water + Tween-80) does the source give for `CCOC(=O)c1ccc(NN=NCCF)cc1` here?
A: Its T/C is 160 % of control.

Q: What about the T/C (dose: 12.5 mg/kg/injection, schedule: Q01DX005 (ip), vehicle: distilled water + Tween-80) of the same compound?
A: Its T/C is 252 % of control.

Q: And the T/C (dose: 25.0 mg/kg/injection, schedule: Q01DX005 (ip), vehicle: distilled water + Tween-80)?
A: Its T/C is 256 % of control and 275 % of control.

Q: Which T/C (dose: 0.13 mg/kg/injection, schedule: Q01DX010 (ip), vehicle: saline) does the source give for `CC(=O)OC(C)(C)/C=C/C(=O)[C@](C)(O)[C@H]1[C@H](O)C[C@@]2(C)[C@@H]3CC=C4[C@@H](C[C@H](O)C(=O)C4(C)C)[C@]3(C)C(=O)C[C@]12C` here?
A: The T/C was 95 % of control.

Q: And the T/C (dose: 0.25 mg/kg/injection, schedule: Q01DX009 (ip), vehicle: saline with Tween-80)?
A: Its T/C is 104 % of control.

Q: What about the T/C (dose: 0.25 mg/kg/injection, schedule: Q01DX010 (ip), vehicle: saline) of the same compound?
A: The T/C was 104 % of control.

Q: And the T/C (dose: 0.5 mg/kg/injection, schedule: Q01DX009 (ip), vehicle: saline with Tween-80)?
A: Its T/C is 100 % of control.

Q: And the T/C (dose: 0.5 mg/kg/injection, schedule: Q01DX010 (ip), vehicle: saline)?
A: Its T/C is 100 % of control.

Q: What about the T/C (dose: 0.62 mg/kg/injection, schedule: Q01DX009 (ip), vehicle: saline) of the same compound?
A: The T/C was 113 % of control.

Q: And the T/C (dose: 1.0 mg/kg/injection, schedule: Q01DX009 (ip), vehicle: saline with Tween-80)?
A: Its T/C is 109 % of control.

Q: And the T/C (dose: 1.0 mg/kg/injection, schedule: Q01DX010 (ip), vehicle: saline)?
A: The T/C was 104 % of control.

Q: What about the T/C (dose: 1.25 mg/kg/injection, schedule: Q01DX009 (ip), vehicle: saline) of the same compound?
A: Its T/C is 117 % of control.

Q: What about the T/C (dose: 2.0 mg/kg/injection, schedule: Q01DX009 (ip), vehicle: saline with Tween-80) of the same compound?
A: Its T/C is 118 % of control.

Q: And the T/C (dose: 2.5 mg/kg/injection, schedule: Q01DX009 (ip), vehicle: saline)?
A: The T/C was 117 % of control.

Q: And the T/C (dose: 5.0 mg/kg/injection, schedule: Q01DX009 (ip), vehicle: saline)?
A: The T/C was 113 % of control.

Q: And the T/C (dose: 10.0 mg/kg/injection, schedule: Q01DX009 (ip), vehicle: saline)?
A: Its T/C is 113 % of control.

Q: Which results are given for `CCCCN(CCCC)C(=N)OC1CCCCC1`?
A: T/C (dose: 12.5 mg/kg/injection, schedule: Q01DX005 (ip), vehicle: saline with Tween-80): 102 % of control; T/C (dose: 25.0 mg/kg/injection, schedule: Q01DX005 (ip), vehicle: saline with Tween-80): 100 % of control; T/C (dose: 50.0 mg/kg/injection, schedule: Q01DX005 (ip), vehicle: saline with Tween-80): 100 % of control

Q: How did the T/C (dose: 100.0 mg/kg/injection, schedule: Q04DX003 (ip), vehicle: saline with Tween-80) turn out when `CCSc1nc(C=O)c(Cc2ccc(Br)cc2)c(=O)[nH]1` was run?
A: Its T/C is 110 % of control.

Q: What about the T/C (dose: 200.0 mg/kg/injection, schedule: Q04DX003 (ip), vehicle: saline with Tween-80) of the same compound?
A: Its T/C is 107 % of control.

Q: What about the T/C (dose: 400.0 mg/kg/injection, schedule: Q04DX003 (ip), vehicle: saline with Tween-80) of the same compound?
A: The T/C was 88 % of control.

Q: With `Nc1nnc2nc(CC(=O)c3cccc([N+](=O)[O-])c3)c(CC(=O)c3cccc([N+](=O)[O-])c3)nn12` as the compound, how does the T/C [1] read?
A: The T/C was 96 % of control.

Q: What about the T/C [2] of the same compound?
A: The T/C was 100 % of control.

Q: What about the T/C [3] of the same compound?
A: Its T/C is 100 % of control.

Q: With `C=C1N=NN(c2ccc([N+](=O)[O-])cc2)C1N1CCOCC1` (stereo not drawn) as the compound, how does the T/C (dose: 60.0 mg/kg/injection, schedule: Q01DX005 (ip), vehicle: Klucel (hydroxypropylcellulose) (HPC)) read?
A: Its T/C is 100 % of control.

Q: What about the T/C (dose: 120.0 mg/kg/injection, schedule: Q01DX005 (ip), vehicle: Klucel (hydroxypropylcellulose) (HPC)) of the same compound?
A: The T/C was 101 % of control.

Q: And the T/C (dose: 240.0 mg/kg/injection, schedule: Q01DX005 (ip), vehicle: Klucel (hydroxypropylcellulose) (HPC))?
A: The T/C was 105 % of control.

Q: For `CCOC(=O)C1C(=O)C(=O)OC1CC(C)C` (stereo not drawn), which T/C (dose: 12.5 mg/kg/injection, schedule: Q01DX005 (ip), vehicle: Klucel (hydroxypropylcellulose) (HPC)) is on record?
A: The T/C was 109 % of control.

Q: And the T/C (dose: 25.0 mg/kg/injection, schedule: Q01DX005 (ip), vehicle: Klucel (hydroxypropylcellulose) (HPC))?
A: The T/C was 103 % of control.

Q: And the T/C (dose: 50.0 mg/kg/injection, schedule: Q01DX005 (ip), vehicle: Klucel (hydroxypropylcellulose) (HPC))?
A: The T/C was 107 % of control and 113 % of control.
